# Columns and labels:
# Format in all cases: cell-based
# [1] = test system: human skin fibroblasts NB1-RGB cells; experiment: Measurement of cells in which apoptosis had been caused (JC-1 green fluorescence, mitochondrial membrane potential as index); details: aged cells (600 μM hydrogen peroxide), specimen 10 μM, 48 hours; relative value with normal cells as 1
# Description: The effect on mitochondrial function improvement in human skin fibroblasts NB1-RGB cells was measured under the following conditions using a mitochondrial membrane potential as an index. By performing an operation for 4 days in which confluent NB1-RGB cells were cultured for one hour in a DMEM medium containing 10% fetal bovine serum and 600 μM hydrogen peroxide solution, cells induced of artificial aging by oxidation were prepared as aged cells. These aged cells and normal, unprocessed cells were prepared at a seeding density of 4,000 cells/cm^2 and cultured for 24 hours in the DMEM medium containing 10% fetal bovine serum. […] After changing a medium to new assay solution supplied in Assay Kit, a fluorescence intensity of the living cells was measured at an excitation wavelength of 520 to 570 nm and a fluorescence wavelength of 570 to 610 nm, and the dead cells at an excitation wavelength of 485 nm and a fluorescence wavelength of 535 nm. In order to obtain a ratio of dead cells in which apoptosis had been caused, only the green fluorescence intensity of a cell group to be measured was measured, and relative values, with a measured value of the normal cells as 1, are shown in Table 2.
# [2] = test system: human skin fibroblasts NB1-RGB cells; experiment: Effect on mitochondrial function improvement (JC-1 red/green fluorescence, mitochondrial membrane potential); details: aged cells (600 μM hydrogen peroxide), specimen 10 μM, 48 hours; relative value with normal cells as 1
# Description: The effect on mitochondrial function improvement in human skin fibroblasts NB1-RGB cells was measured under the following conditions using a mitochondrial membrane potential as an index. By performing an operation for 4 days in which confluent NB1-RGB cells were cultured for one hour in a DMEM medium containing 10% fetal bovine serum and 600 μM hydrogen peroxide solution, cells induced of artificial aging by oxidation were prepared as aged cells. These aged cells and normal, unprocessed cells were prepared at a seeding density of 4,000 cells/cm^2 and cultured for 24 hours in the DMEM medium containing 10% fetal bovine serum. […] After changing a medium to new assay solution supplied in Assay Kit, a fluorescence intensity of the living cells was measured at an excitation wavelength of 520 to 570 nm and a fluorescence wavelength of 570 to 610 nm, and the dead cells at an excitation wavelength of 485 nm and a fluorescence wavelength of 535 nm. In order to evaluate the state of mitochondrial membrane potential, red fluorescence intensity and green fluorescence intensity of a cell group to be measured were measured, and values of red fluorescence intensity divided by green fluorescence intensity were calculated, and their relative values, with a measured value of the normal cells as 1, are shown in Table 3. […]
# [3] = test system: human skin fibroblasts NB1-RGB cells; experiment: Effect on promoting elastin production (Elastin Assay Kit); details: aged cells, 48 hours, normal cell = 1.00
# Description: It is known that elastin is a fiber-like protein, which has a main function of crosslinking collagen, is present in the dermis of the skin, blood vessels, ligaments, and the like, and provides elasticity to the skin. The effect of a hydroxycitric acid derivative on elastin production was examined by the following method. The aged cells and normal, unprocessed cells which were produced in Example 1 were prepared at a seeding density of 4,000 cells/cm^2 and cultured for 24 hours in the DMEM medium containing 10% fetal bovine serum. The hydroxycitric acid derivatives according to the present invention which were dissolved in 50% ethanol to the final concentration of 0 μM (for a control), 0.01 μM, and 0.1 μM were added to the DMEM medium containing 10% fetal bovine serum, and culturing was performed for 48 hours. After that, cells were collected, elastin was extracted using Elastin Assay Kit manufactured by Biocolor Ltd., and an absorbance of the extracted solution was measured at a wavelength of 513 nm.
Compound,Relative fluorescence intensity (green fluorescence of dead cells in which apoptosis had been caused) [1],Relative fluorescence intensity (red fluorescence intensity divided by green fluorescence intensity; effect on mitochondrial function improvement) [2],Relative absorbance (513 nm) (elastin production) ([3]; specimen 0.01 μM),Relative absorbance (513 nm) (elastin production) ([3]; specimen 0.1 μM)
CCCCCCCCCCCCCC(=O)OC(CC(=O)O)(C(=O)O)C(O)C(=O)O (centres unmarked) [Hydroxycitric acid-2-myristate],1.13,0.66,0.93,0.94
Hydroxycitric acid-2-palmitate,1.04,0.72,1.11,1.06
